# Source: US7872006B2, “Pyrazole compounds having cannabinoid receptor (CB1) antagonizing activity” (Mitsubishi Tanabe Pharma Corporation, priority 2005, dated 2011)
# pIC50: −log10 of the molar value.
# Biological target: T1, Human CB1 receptor (Homo sapiens, UniProt P21554)
# T1 construct: host or cells: CHO cells; the membrane fraction was prepared in house from the purchased recombinant line
# Test: Human CB1 receptor binding assay ([3H]-CP55940 displacement)
# Settings: not given
# Description: [Human CB1 Receptor Binding Assay]
# (1) Preparation of human CB1 receptor (membrane fraction):
# Human CB1-expressing cell line: hCB1/CHO#C3 (Euroscreen)
# The receptor-expressing cells cultivated in the above medium were washed with phosphate buffer (×2) and thereto was added Buffer A (2 mL) under ice-cooling or 4° C. (the following procedures were also carried out at the same temperature). The cells were collected by using a cell-scraper, treated by a microtip-type ultrasonicator for 20 seconds (pulse-on: 2 sec, pulse-off: 1 sec) and centrifuged (500×g, 15 min). The supernatant was separated and centrifuged (43000×g, 60 min). The resultant pellet was suspended in Buffer A and homogenized with a potter-type homogenizer. To the homogenate was added an equal volume of 80% glycerol and stored at −80° C.
# (2) Procedure of CB1 Receptor Binding Assay:
# Radioligand: [^3H]-CP55940 (30 nM/7992 dpm/μL) prepared by diluting 8.3 µM solution of the radioligand with Buffer B
# Each well of the assay plate (96-well, Costar Code#3371) was filled with Buffer B (140 μL), a solution of each test compound in dimethylsulfoxide (20 μL, […]), radioligand (20 μL) and membrane preparation (20 μL, 0.5 µg/20 μL) and the mixture was incubated at 30° C. for 90 minutes to proceed the binding reaction. The reaction mixture was harvested to each well of a plate presoaked with the above coating solution (Packard Unifilter GF/B, #6005177). The plate was washed with Buffer C (200 μL×10) and dried at 50° C. for 1 hour and Microscinti 40 (40 μL) was added to each well. The bound radiolabel was quantitated by scintilation counting (Top Count NXT, Packard). IC50 value of each test compound against the radioligand-binding to CB1 receptors was calculated on the basis of the quantitated radiolabel activity by using Graphpad Prism 3.02.
# T1 sequence (P21554 whole entry): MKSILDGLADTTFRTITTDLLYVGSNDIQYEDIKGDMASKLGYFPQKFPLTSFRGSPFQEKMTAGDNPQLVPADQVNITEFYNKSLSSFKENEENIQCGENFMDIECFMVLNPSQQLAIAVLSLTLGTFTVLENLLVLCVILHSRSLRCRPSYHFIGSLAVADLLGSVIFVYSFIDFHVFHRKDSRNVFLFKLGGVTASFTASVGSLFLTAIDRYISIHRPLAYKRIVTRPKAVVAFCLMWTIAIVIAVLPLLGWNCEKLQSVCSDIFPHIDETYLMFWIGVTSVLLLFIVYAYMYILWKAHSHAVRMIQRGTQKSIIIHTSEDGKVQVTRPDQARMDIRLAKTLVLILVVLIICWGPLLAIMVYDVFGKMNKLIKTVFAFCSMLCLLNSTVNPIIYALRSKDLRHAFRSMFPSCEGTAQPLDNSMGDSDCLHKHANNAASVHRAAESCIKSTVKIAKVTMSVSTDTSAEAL
row,Compound,pIC50
1,COc1c(C(=O)NC2CCCC2)nn(-c2ccccc2Cl)c1-c1ccc(Cl)cc1 [Example 55],7.00 to 8.00
2,"COc1c(C(=O)NN2CCN(c3ccc(C(F)F)cn3)CC2)nn(-c2ccccc2Cl)c1-c1ccc(Cl)cc1 [Example 339, 1-(2-chlorophenyl)-5-(4-chlorophenyl)-3-[N-[4-(5-difluoromethyl-pyridin-2-yl)piperazin-1-yl]carbamoyl]-4-methoxy-1H-pyrazole]",7.00 to 8.00

# Same assay, conditions: radioligand [3H]-CP55940, membrane fraction of hCB1/CHO cells, 30° C. for 90 minutes; read-out: IC50
row,pIC50,Compound
1,7.00 to 8.00,"NC(=O)COc1c(C(=O)NN2CCC(C(N)=O)(c3ccccc3)CC2)nn(-c2ccccc2Cl)c1-c1ccc(Cl)cc1 [Example 276, 1-(2-chlorophenyl)-5-(4-chloro-phenyl)-4-carbamoylmethoxy-3-[N-(4-carbamoyl-4-phenylpiperidin-1-yl)carbamoyl]-1H-pyrazole]"
2,> 8.00,O=C(NN1CCC(F)(F)CC1)c1nn(-c2ccccc2Cl)c(-c2ccc(Cl)cc2)c1OC(F)F [Example 307]
3,6.30 to 7.00,"CCNC(=O)NCCOc1c(C(=O)NN2CCCC2)nn(-c2ccccc2Cl)c1-c1ccc(Cl)cc1 [Example 288, 1-(2-chlorophenyl)-5-(4-chlorophenyl)-4-[2-(N′-ethylureido)ethoxy]-3-[N-(1-pyrrolidinyl)carbamoyl]-1H-pyrazole]"
4,7.00 to 8.00,"CCNC1(C(N)=O)CCN(C(=O)c2nn(-c3ccccc3Cl)c(-c3ccc(Cl)cc3)c2O)CC1 [Example 279, 1-(2-chlorophenyl)-5-(4-chlorophenyl)-4-hydroxy-3-[[4-carbamoyl-4-(ethylamino)piperidino]carbonyl]-1H-pyrazole]"
5,7.00 to 8.00,COc1c(C(=O)NN2CCN(C(=O)c3ccc(F)cc3F)CC2)nn(-c2ccccc2Cl)c1-c1ccc(Cl)cc1 [Example 216]
6,7.00 to 8.00,COCCOc1c(C(=O)NN2CCCC2)nn(-c2ccccc2Cl)c1-c1ccc(C(F)(F)F)cc1 [Example 148]

# The next lines start with the compound.
row,Compound,pIC50
1,"COc1c(C(=O)CN2CCS(=O)(=O)CC2)nn(-c2ccccc2Cl)c1-c1ccc(Cl)cc1 [Example 36, 1-(2-chlorophenyl)-5-(4-chlorophenyl)-4-methoxy-3-[1-(1,1-dioxothiomorpholino)acetyl]-1H-pyrazole]",7.00 to 8.00
2,COc1c(C(=O)NN(C)C)nn(-c2ccccc2Cl)c1-c1ccc(C(F)(F)F)cc1 [Example 134],7.00 to 8.00
3,1-(2-chlorophenyl)-5-(4-chlorophenyl)-4-hydroxy-3-[N′-(4-tetrahydropyranyl)ureido]-1H-pyrazole [Example 18],7.00 to 8.00
4,COc1c(C(=O)NCC(F)(F)F)nn(-c2ccccc2Cl)c1-c1ccc(Cl)cc1 [Example 4],7.00 to 8.00
